In PubChem BioAssay (NCI):
Values joined by “and” are separate entries in the source; they are usually repeats but may differ in a detail not shown here. Identical values can stand only once.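 Each compound was tested at five concentrations against cells in 96-well plates for 48 hours. GI50 is the concentration that inhibits growth by half. At the TGI there is no net growth.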

What was measured:
Assay in all cases: growth of human tumour cells (NCI), 48 h
HOP-62 NSCLC = tested on: HOP-62 NSCLC
HOP-92 NSCLC = tested on: HOP-92 NSCLC
IGROV1 ovarian = tested on: IGROV1 ovarian
LOX IMVI melanoma = tested on: LOX IMVI melanoma
MALME-3M melanoma = tested on: MALME-3M melanoma
MCF7 breast = tested on: MCF7 breast
NCI-H23 lung = tested on: NCI-H23 lung
OVCAR-4 ovarian = tested on: OVCAR-4 ovarian
OVCAR-5 ovarian = tested on: OVCAR-5 ovarian
TK-10 renal = tested on: TK-10 renal

Row | SMILES | GI50 (HOP-62 NSCLC) [µM] | TGI (HOP-62 NSCLC) [µM] | GI50 (HOP-92 NSCLC) [µM] | TGI (HOP-92 NSCLC) [µM] | GI50 (IGROV1 ovarian) [µM] | TGI (IGROV1 ovarian) | GI50 (LOX IMVI melanoma) [µM] | TGI (LOX IMVI melanoma) [µM] | GI50 (MALME-3M melanoma) [µM] | TGI (MALME-3M melanoma) | GI50 (MCF7 breast) [µM] | TGI (MCF7 breast) [µM] | GI50 (NCI-H23 lung) [µM] | TGI (NCI-H23 lung) [µM] | GI50 (OVCAR-4 ovarian) [µM] | TGI (OVCAR-4 ovarian) [µM] | GI50 (OVCAR-5 ovarian) [µM] | TGI (OVCAR-5 ovarian) [µM] | GI50 (TK-10 renal) [µM] | TGI (TK-10 renal) [µM]
1 | Nc1ccc(-c2ccc(N)cc2I)c(I)c1 | 17.5 | 39.4 | 11.2 | 37 | 13.9 | 56.1 µM | 16.3 | 31.2 | 11.9 | 36.7 µM | 18.4 | 58.1 | 17.8 | 43.1 | 17.5 | > 100 | 17.5 | 54.8 | 22.8 | 80.7
2 | COc1cc(C2CC(c3ccc(N(C)C)cc3)=NN2C(C)=O)cc(OC)c1OC (centres undefined) | 2.16 | > 100 | 29.6 | > 100 | 2.65 | > 100 µM | 2.28 | > 100 | > 100 | > 100 µM | 0.577 | > 100 | 4.33 | > 67 | 10.9 | > 100 | > 27.8 | > 100 | 14.3 | > 100
3 | Cn1ccnc1C(=O)/C=C/c1ccc(CC(=O)Nc2ccc(C(F)(F)F)cc2)cc1 | > 16.7 | > 16.7 | 2.4 | 5.66 | 4.37 | 12.9 µM | 2.18 | 4.37 | 3.95 | 10.7 µM | 1.02 | 14.5 | 3.28 | 6.9 | 3.1 | > 16.7 | 2.45 | 5.21 | 5 | 15.3
4 | c1ccc(CSc2nnc3c4ccccc4c4ccccc4c3n2)cc1 | – | 75.6 | – | 59.7 | – | > 46.6 µM | – | > 100 | – | > 100 µM | – | > 100 | – | > 100 | – | > 96.3 | – | > 100 | – | 84.5
5 | COC(=O)C(F)C(Br)C(=O)OC (centres undefined) | – | 35.7 | – | 4.96 | – | > 20.5 µM | – | 32 | – | 16.5 µM | – | 15.6 | – | 13.5 | – | 19.8 | – | 31.8 | – | 5.37
6 | COCCNc1cc(NC(=O)N2CCCc3cc(CN4CCN(C)CC4=O)c(C=O)nc32)ncc1C#N | > 50 | > 50 | 1.59 | 21.6 | > 50 | > 50 µM | > 50 | > 50 | > 50 | > 50 µM | 40.4 | > 50 | > 50 | > 50 | > 50 | > 50 | > 50 | > 50 | > 50 | > 50
7 | C/C=C/[C@@H]1OC(=O)C2=C[C@@H](O)[C@@H](/C=C/C)O[C@H]21 | 20 | 36.2 | 2.4 | 9.12 | 7.62 | > 56 µM | 6.44 | 18.5 | 1.73 | 5.56 µM | 14.4 | > 100 | 3.08 | 23.3 | 6.96 | 27.8 | 13.6 | 35 | 1.96 | 7.04
8 | OCC1OC(n2cnc3c(=S)nc[nH]c32)C(O)C1O (centres undefined) | 1.48 | > 2500 | 0.698 | > 1780 | 12.2 | 2490 µM and > 100 µM | 0.705 | > 2500 | > 30 | 2480 µM and > 100 µM | 1.82 | > 2500 | 4.15 | > 2500 | 4.05 | > 2500 | 3.79 | > 2500 | 4.37 | > 2500
9 | CCCCNC(=O)NS(=O)(=O)c1ccc(N2N=C(c3cc(C)ccc3C)CC2c2cc(OC)c(OC)c(OC)c2)cc1 (centres undefined) | 3.15 | 10.2 | 1.27 | 4.63 | 3.19 | 9.96 µM | 2.24 | 4.75 | 2.4 | 6.83 µM | 2.06 | 5.58 | 2.35 | 6.22 | 2.52 | 14.5 | 3.39 | 11.9 | 3.44 | 10.7
10 | O=C(c1cccnc1)c1cc(-c2ccccn2)c(=O)n2ccccc12 | > 100 | > 100 | > 100 | > 100 | > 100 | > 100 µM | > 100 | > 100 | > 100 | > 100 µM | > 100 | > 100 | > 100 | > 100 | > 100 | > 100 | > 100 | > 100 | > 100 | > 100
11 | FC(F)(F)c1ccc(-c2cnc(Cl)nc2NCc2cc(C(F)(F)F)cc(C(F)(F)F)c2)cc1 | 3.86 | > 100 | 1.37 | 4.3 | 7.87 | > 100 µM | 2.74 | > 100 | 2.84 | 7.56 µM | 2.65 | > 100 | 3.28 | > 100 | 2.94 | > 100 | 4.52 | > 100 | 3.16 | > 100
12 | CCN(CC)c1ccc(C(=N)c2ccc(N(C)C)cc2)cc1 | 1.55 | 12.2 | 1.05 | 4.22 | 0.949 | 13 µM | 1.21 | 7.22 | 0.205 | 4.76 µM | 0.197 | 7.25 | 0.218 | 3.19 | 2.75 | > 39.5 | 2.04 | 6.78 | 2.41 | 8.02
13 | COc1ccc(/C=C2\CCC(CN(C)C)C2=O)cc1OC (centres undefined) | – | 39.9 | – | 21 | – | 33.1 µM | – | 3.96 | – | 11.7 µM | – | 8.51 | – | 32.3 | – | 18.4 | – | 29.8 | – | 18.7
14 | CN(C(=O)c1ccncc1)c1ccccc1 | – | > 100 | – | > 100 | – | > 100 µM | – | > 100 | – | > 100 µM | – | > 100 | – | > 100 | – | > 100 | – | > 100 | – | > 100
15 | CS(=O)(=O)Nc1ccc(N=Cc2c(O)[nH]c3ccccc23)cc1 | > 25 | > 25 | > 25 | > 25 | > 25 | > 25 µM | > 25 | > 25 | > 25 | > 25 µM | > 25 | > 25 | > 25 | > 25 | > 25 | > 25 | > 25 | > 25 | > 25 | > 25
16 | CSc1ccccc1C#Cc1ccccc1C#CCCCCO | 24.9 | > 100 | 9.76 | 25.1 | 14 | 27.5 µM | 5.87 | 19.2 | 15.2 | 36.5 µM | 19.1 | 39.2 | 15.7 | 33 | 17.7 | 37.3 | 13.6 | 32.2 | 13.7 | 30.4
17 | CC1(C)CC[C@]2(C(=O)N3CCOCC3)CC[C@]3(C)C(=CC[C@@H]4[C@@]5(C)C/C(=C/c6ccncc6)C(=O)C(C)(C)[C@@H]5CC[C@]43C)[C@@H]2C1 | 1.76 | 6.73 | 0.0347 | 11.6 | 3.09 | > 100 µM | 1.24 | 2.72 | 1.57 | 4.59 µM | 0.509 | 15.3 | 2.41 | > 100 | 2.34 | > 100 | 2.27 | 9.45 | 6.46 | > 100
18 | COc1cc2c3c(n(C)c(=O)c2cc1OC)-c1cc2c(cc1/C3=C\C(N)CN)OCO2 (centres undefined) | 1.29 | 8.91 | 0.368 | 6.8 | 0.791 | – | 1.05 | 3.12 | 0.284 | 4.04 µM | 0.51 | 7 | 1.84 | 5.58 | 5.44 | > 100 | 4.43 | > 30.9 | 1.45 | 26.5
19 | O=C(COc1cccc(/C=C2\COc3ccc(Cl)cc3C2=O)c1)c1ccc(Cl)cc1 | 14.3 | 27.7 | 0.536 | 13.4 | 0.54 | 3.7 µM | 3.2 | 13.2 | 17.9 | 34.2 µM | 1.25 | 4.76 | 13.4 | 26.4 | 14.9 | 31.5 | 13 | 25.8 | 15.1 | 28.7
20 | CCCCN(CCCC)c1ccc(C(=NC(C)CCCN(CC)CC)c2ccc(N(C)C)cc2)cc1 (centres undefined) | 0.829 | 1.63 | 0.609 | 1.71 | 0.897 | 1.95 µM | 0.775 | 1.46 | 0.785 | 1.62 µM | 0.836 | 1.95 | 0.889 | 1.93 | 1.09 | 3.34 | 1.31 | 3.47 | 1.34 | 3.99
